Values joined by “and” are separate entries in the source; they are usually repeats but may differ in a detail not shown here. Equal entries are not always repeated.
How the values were obtained:
[1] = for vapor or sublimation pressure: Crystal 1; for Triple point temperature: Adiabatic calorimetry
[2] = molar heat capacity at constant pressure; details: 101.33 kPa, Small (less than 1 g) adiabatic calorimetry
[3] = Molar enthalpy of transition or fusion; details: Adiabatic calorimetry

NC12CC3CC(CC(C3)C1)C2 [tricyclo(3.3.1.1:3,7)decan-1-amine]
Details	molar heat capacity at constant pressure [J/K/mol]	vapor or sublimation pressure
[1], 291.05 K, Calculated from knudsen effusion weight loss	–	0.00621 kPa
[1], 291.07 K, Calculated from knudsen effusion weight loss	–	0.00627 kPa
[1], 291.2 K, Transpiration method	–	0.00632 kPa
[1], 293.54 K, Calculated from knudsen effusion weight loss	–	0.00757 kPa
[1], 293.55 K, Calculated from knudsen effusion weight loss	–	0.00752 kPa
[1], 294.2 K, Transpiration method	–	0.00832 kPa
[1], 297.1 K, Transpiration method	–	0.0107 kPa
[1], 300.1 K, Transpiration method	–	0.0137 kPa
[1], 303.2 K, Transpiration method	–	0.0186 kPa
[1], 305.6 K, Transpiration method	–	0.0223 kPa
[1], 305.94 K, Calculated from knudsen effusion weight loss	–	0.0211 kPa
[1], 305.98 K, Calculated from knudsen effusion weight loss	–	0.0204 kPa
[1], 308.1 K, Transpiration method	–	0.027 kPa
[1], 308.52 K, Calculated from knudsen effusion weight loss	–	0.0263 kPa
[1], 310.4 K, Transpiration method	–	0.0291 kPa
[1], 310.94 K, Calculated from knudsen effusion weight loss	–	0.0309 kPa and 0.0315 kPa
[1], 313.2 K, Transpiration method	–	0.0396 kPa
[1], 318 K, Transpiration method	–	0.0535 kPa
[1], 318.3 K, Transpiration method	–	0.0549 kPa
[1], 323.3 K, Transpiration method	–	0.0777 kPa
[1], 328.1 K, Transpiration method	–	0.108 kPa
[1], 333.4 K, Transpiration method	–	0.148 kPa and 0.153 kPa
[1], 338.3 K, Transpiration method	–	0.2 kPa
[1], 338.5 K, Transpiration method	–	0.205 kPa
[1], 343.4 K, Transpiration method	–	0.269 kPa
[1], 343.6 K, Transpiration method	–	0.286 kPa
[2], 5 K, Crystal 3	0.4688	–
[2], 10 K, Crystal 3	3.505	–
[2], 15 K, Crystal 3	9.163	–
[2], 20 K, Crystal 3	15.65	–
[2], 25 K, Crystal 3	21.75	–
[2], 30 K, Crystal 3	26.96	–
[2], 35 K, Crystal 3	31.21	–
[2], 40 K, Crystal 3	34.7	–
[2], 45 K, Crystal 3	37.68	–
[2], 50 K, Crystal 3	40.29	–
[2], 60 K, Crystal 3	44.98	–
[2], 70 K, Crystal 3	49.57	–
[2], 80 K, Crystal 3	54.53	–
[2], 90 K, Crystal 3	59.87	–
[2], 100 K, Crystal 3	65.39	–
[2], 110 K, Crystal 3	71.11	–
[2], 120 K, Crystal 3	77.06	–
[2], 130 K, Crystal 3	83.31	–
[2], 140 K, Crystal 3	89.8	–
[2], 150 K, Crystal 3	96.61	–
[2], 160 K, Crystal 3	103.8	–
[2], 170 K, Crystal 3	111.5	–
[2], 180 K, Crystal 3	119.5	–
[2], 190 K, Crystal 3	128	–
[2], 200 K, Crystal 3	136.9	–
[2], 210 K, Crystal 3	146.4	–
[2], 220 K, Crystal 3	156.5	–
[2], 230 K, Crystal 3	167.1	–
[2], 240 K, Crystal 3	178.3	–
[2], 241.4 K, Crystal 2	179.9	–
[2], 241.4 K, Crystal 3	179.9	–
[2], 250 K, Crystal 2	190.2	–
[2], 260 K, Crystal 2	202.7	–
[2], 270 K, Crystal 2	215.9	–
[2], 280 K, Crystal 2	230	–
[2], 284.6 K, Crystal 1	263.6	–
[2], 284.6 K, Crystal 2	236.6	–
[2], 290 K, Crystal 1	264.7	–
[2], 298.15 K, Crystal 1	266.4	–
[2], 300 K, Crystal 1	266.8	–
[2], 310 K, Crystal 1	268.9	–
[2], 320 K, Crystal 1	271.1	–
[2], 330 K, Crystal 1	273.1	–
[2], 340 K, Crystal 1	275.5	–
[2], 350 K, Crystal 1	278.5	–
[2], 360 K, Crystal 1	282.1	–
[2], 370 K, Crystal 1	286.4	–

Details	mass density [kg/m3]
[1], 298.15 K, 101.33 kPa, Crystal 3, Pycnometric method	1100

Details	Molar enthalpy of transition or fusion, [3] [kcal/mol]	Triple point temperature, [1] [K]
Crystal 2	1.269	284.6
Crystal 3	0.41	241.4

Source: the NIST ThermoML archive (doi:10.1016/j.jct.2007.08.002)
